The text below walks through data of patent US9523100B2, “Pesticidal compositions and related methods” (DOW AGROSCIENCES LLC, priority 2013, dated 2016).

Assay [1] has as its system Green Peach Aphid (GPA) (Myzus persicae) (MYZUPE). Put plainly: Bioassay for Green Peach Aphid (GPA), foliar spray on cabbage seedlings. The class given is in vivo. To be noted: 72 h, read-out: GPA 200 ppm, % Control (or Mortality) rating. Put shortly:
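Cabbage seedlings infested with 20-50 GPA (wingless adults and nymphs) one day before spraying to runoff with 200 ppm compound; four pots per treatment. Live aphids counted after three days at ~25° C; percent control by Abbott's correction against solvent-sprayed plants.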

In assay [2] the test system is Sweetpotato Whitefly-Crawler (WF) (Bemisia tabaci) (BEMITA). Put plainly: Insecticidal test for Sweetpotato Whitefly-Crawler (WF) in foliar spray assay on cotton plants. To be noted: 216 h, read-out: WF 200 ppm, % Control (or Mortality) rating. The class given is in vivo. Put shortly:
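Cotton plants carrying 200–400 whitefly eggs sprayed to run-off on both leaf surfaces at 200 ppm (acetone/0.025% Tween 20), four plants per treatment. After 9 days at about 25 °C, live 3rd–4th instar nymphs counted; Abbott-corrected percent control versus solvent check.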

The mark [3] stands for this setting: 200 ppm foliar spray on cabbage seedlings, graded after three days, Abbott corrected % control.
[4] abbreviates: 200 ppm foliar spray on cotton plants, graded after 9 days, Abbott corrected % control.

Read-outs that look alike come from different tables or passages of the source.

On to `CCN(C(=O)CCC1CNC1=O)c1cn(-c2cccnc2)nc1Cl` (stereo not shown) [Compound F50], for which the mortality – broadly, the percentage killed – at 200 ppm in assay [1] (setting [3]) is 0 to 80%; in assay [2] (setting [4]) it was 80 to 100%.

On to `CCN(C(=O)CC/C(C)=N/OCC(F)(F)F)c1cn(-c2cccnc2)nc1Cl` [Compound F51, (E/Z)-N-(3-Chloro-1-(pyridin-3-yl)-1H-pyrazol-4-yl)-N-ethyl-4-((2,2,2-trifluoroethoxy)imino) pentanamide], for which the mortality at 200 ppm in assay [1] (setting [3]) and in assay [2] (setting [4]) was 80 to 100% each time.

Regarding `CCN(C(=O)CCN(C)C(=O)OC(C)(C)C)c1cn(-c2cccnc2)nc1Cl` [Compound F52, tert-Butyl (3-((3-chloro-1-(pyridin-3-yl)-1H-pyrazol-4-yl)(ethyl)amino)-3-oxopropyl)(methyl) carbamate], the mortality at 200 ppm in assay [1] (foliar) and in assay [2] (foliar) was 80 to 100% in each case.

For the compound `CCN(C(=O)CCCC1CN(C)C1=O)c1cn(-c2cccnc2)nc1Cl` (stereo not shown) [Compound F53, N-(3-Chloro-1-(pyridin-3-yl)-1H-pyrazol-4-yl)-N-ethyl-4-(1-methyl-2-oxoazetidin-3-yl)butanamide], the mortality at 200 ppm in assay [1] (setting [3]) and in assay [2] (setting [4]) was 80 to 100% throughout.

In the case of `CCN(C(=O)CCC(=O)NC1CC1C(F)(F)F)c1cn(-c2cccnc2)nc1Cl` (stereo not shown) [Compound F54, N1-(3-Chloro-1-(pyridin-3-yl)-1H-pyrazol-4-yl)-N1-ethyl-N4-(2-(trifluoromethyl)cyclopropyl) succinamide], the mortality at 200 ppm in assay [1] (setting [3]) and in assay [2] (setting [4]) was 80 to 100% throughout.

As for `CCN(C(=O)CCC(=O)N(C)CC#N)c1cn(-c2cccnc2)nc1Cl` [Compound F55, N1-(3-Chloro-1-(pyridin-3-yl)-1H-pyrazol-4-yl)-N4-(cyanomethyl)-N1-ethyl-N4-methylsuccinamide], the results for the mortality at 200 ppm in assay [1] (setting [3]) and in assay [2] (setting [4]) were 0 to 80% and 80 to 100%, respectively.

As for `CCN(C(=O)CCNC(=O)C1CC1(F)F)c1cn(-c2cccnc2)nc1Cl` (stereo not shown) [Compound F56, N-(3-((3-Chloro-1-(pyridin-3-yl)-1H-pyrazol-4-yl)(ethyl)amino)-3-oxopropyl)-2,2-difluorocyclopropanecarboxamide], the mortality at 200 ppm in assay [1] (setting [3]) and in assay [2] (setting [4]) was 80 to 100% in each case.

For the compound `CCN(C(=O)CNC(=O)CC(F)(F)F)c1cn(-c2cccnc2)nc1Cl` [Compound F57, N-(2-((3-Chloro-1-(pyridin-3-yl)-1H-pyrazol-4-yl)(ethyl)amino)-2-oxoethyl)-3,3,3-trifluoropropanamide], the mortality at 200 ppm in assay [1] (setting [3]) and in assay [2] (setting [4]) was 80 to 100% each time.

On to `CCN(C(=O)CCCC1CNC1=O)c1cn(-c2cccnc2)nc1Cl` (stereo not shown) [Compound F58], for which the mortality at 200 ppm in assay [1] (setting [3]) and in assay [2] (setting [4]) was 80 to 100% in each case.

Consider `CCN(C(=O)CC/C(C)=N/Oc1cccc(C(F)(F)F)n1)c1cn(-c2cccnc2)nc1Cl` [Compound F59, (E/Z)-N-(3-Chloro-1-(pyridin-3-yl)-1H-pyrazol-4-yl)-N-ethyl-4-(((6-(trifluoromethyl)pyridin-2-yl)oxy)imino)pentanamide], for which the mortality at 200 ppm in assay [1] (setting [3]) and in assay [2] (setting [4]) was 80 to 100% in each case.

In the case of `CCN(C(=O)C1CCN(C(C)=O)CC1)c1cn(-c2cccnc2)nc1Cl` [Compound F61, 1-Acetyl-N-(3-chloro-1-(pyridin-3-yl)-1H-pyrazol-4-yl)-N-ethylpiperidine-4-carboxamide], the mortality at 200 ppm in assay [1] (setting [3]) fell in the range of 80 to 100%; in assay [2] (setting [4]) it was 0 to 80%.

For `Cc1nn(-c2cccnc2)cc1N(C)C(=O)CCC(=O)N(C)C` [Compound F62, N1,N1,N4-trimethyl-N4-(3-methyl-1-(pyridin-3-yl)-1H-pyrazol-4-yl)succinamide], the mortality at 200 ppm in assay [1] (setting [3]) and in assay [2] (setting [4]) was 80 to 100% in each case.

As for `CCN(C(=O)CCNC(=O)CC(F)(F)F)c1cn(-c2cccnc2)nc1Cl` [Compound F63, N-(3-((3-Chloro-1-(pyridin-3-yl)-1H-pyrazol-4-yl)(ethyl)amino)-3-oxopropyl)-3,3,3-trifluoropropanamide], the mortality at 200 ppm in assay [1] (setting [3]) and in assay [2] (setting [4]) was 80 to 100% throughout.

Consider `CCN(C(=O)CCN(C)C(C)=O)c1cn(-c2cccnc2)nc1Cl` [Compound F64, N-(3-chloro-1-(pyridin-3-yl)-1H-pyrazol-4-yl)-N-ethyl-3-(N-methylacetamido) propanamide], for which the mortality at 200 ppm in assay [1] (setting [3]) and in assay [2] (setting [4]) was 80 to 100% throughout.

For the compound `CCN(C(=O)CCNC(=O)/C=C/C(F)(F)F)c1cn(-c2cccnc2)nc1Cl` [Compound F65, (E)-N-(3-((3-Chloro-1-(pyridin-3-yl)-1H-pyrazol-4-yl)(ethyl)amino)-3-oxopropyl)-4,4,4-trifluorobut-2-enamide], the mortality at 200 ppm in assay [1] (setting [3]) and in assay [2] (setting [4]) was 80 to 100% each time.

For `CCN(C(=O)C(C)N(C)C(=O)CC(F)(F)F)c1cn(-c2cccnc2)nc1Cl` (stereo not shown) [Compound F66, N-(1-((3-Chloro-1-(pyridin-3-yl)-1H-pyrazol-4-yl)(ethyl)amino)-1-oxopropan-2-yl)-3,3,3-trifluoro-N-methylpropanamide], the mortality at 200 ppm in assay [1] (setting [3]) and in assay [2] (setting [4]) was 80 to 100% in each case.

For the compound `CCN(C(=O)CCC(=O)NCC(F)(F)F)c1cn(-c2cccnc2)nc1Cl` [Compound F67, N1-(3-Chloro-1-(pyridin-3-yl)-1H-pyrazol-4-yl)-N1-ethyl-N4-(2,2,2-trifluoroethyl)succinamide], the mortality at 200 ppm in assay [1] (setting [3]) and in assay [2] (setting [4]) was 80 to 100% each time.

In the case of `CCN(C(=O)CCC(=O)NCc1cccc(Cl)c1)c1cn(-c2cccnc2)nc1Cl` [Compound F68, N1-(3-Chloro-1-(pyridin-3-yl)-1H-pyrazol-4-yl)-N4-(3-chlorobenzyl)-N1-ethylsuccinamide], the mortality at 200 ppm fell in the range of 0 to 80% in assay [1] (setting [3]) and 80 to 100% in assay [2] (setting [4]).

For the compound `CCN(C(=O)CCN1CCOC1=O)c1cn(-c2cccnc2)nc1Cl` [Compound F69, N-(3-Chloro-1-(pyridin-3-yl)-1H-pyrazol-4-yl)-N-ethyl-3-(2-oxooxazolidin-3-yl)propanamide], the mortality at 200 ppm in assay [1] (setting [3]) and in assay [2] (setting [4]) was 80 to 100% each time.

Turning to `CCN(C(=O)CCC(=O)NCC1CC1)c1cn(-c2cccnc2)nc1Cl` [Compound F70, N1-(3-Chloro-1-(pyridin-3-yl)-1H-pyrazol-4-yl)-N4-(cyclopropylmethyl)-N1-ethylsuccinamide], the mortality at 200 ppm in assay [1] (setting [3]) and in assay [2] (setting [4]) was 80 to 100% throughout.

`CCN(C(=O)CC1CNC1=O)c1cn(-c2cccnc2)nc1Cl` (stereo not shown) [Compound F71, N-(3-chloro-1-(pyridin-3-yl)-1H-pyrazol-4-yl)-N-ethyl-2-(2-oxoazetidin-3-yl)acetamide]: the mortality at 200 ppm in assay [1] (setting [3]) and in assay [2] (setting [4]) was 80 to 100% each time.

`CCN(C(=O)CCC(=O)NCCC(F)(F)F)c1cn(-c2cccnc2)nc1Cl` [Compound F73, N1-(3-Chloro-1-(pyridin-3-yl)-1H-pyrazol-4-yl)-N1-ethyl-N4-(3,3,3-trifluoropropyl) succinamide]: the mortality at 200 ppm in assay [1] (setting [3]) and in assay [2] (setting [4]) was 80 to 100% in each case.

Consider `CCN(C(=O)CCC1CN(CC2CC2(F)F)C1=O)c1cn(-c2cccnc2)nc1Cl` (stereo not shown) [Compound F74, N-(3-Chloro-1-(pyridin-3-yl)-1H-pyrazol-4-yl)-3-1(1-((2,2-difluorocyclopropyl)methyl)-2-oxoazetidin-3-yl)-N-ethylpropanamide], for which the mortality at 200 ppm in assay [1] (setting [3]) and in assay [2] (setting [4]) was 80 to 100% in each case.

In the case of `CCN(C(=O)CCNC(=O)CC1CC1)c1cn(-c2cccnc2)nc1Cl` [Compound F75, N-(3-Chloro-1-(pyridin-3-yl)-1H-pyrazol-4-yl)-3-(2-cyclopropylacetamido)-N-ethylpropanamide], the mortality at 200 ppm in assay [1] (setting [3]) and in assay [2] (setting [4]) was 80 to 100% throughout.

As for `CN(CC(=O)N(CC1CC1)c1cn(-c2cccnc2)nc1Cl)C(=O)OC(C)(C)C` [Compound F76, tert-Butyl (2-((3-chloro-1-(pyridin-3-yl)-1H-pyrazol-4-yl)(cyclopropylmethyl)amino)-2-oxoethyl) (methyl)carbamate], the mortality at 200 ppm in assay [1] (foliar) and in assay [2] (foliar) was 0 to 80% throughout.

In the case of `CN(C(=O)CN1CCCCC1=O)c1cn(-c2cccnc2)nc1Cl` [Compound F77, N-(3-Chloro-1-(pyridin-3-yl)-1H-pyrazol-4-yl)-N-methyl-2-(2-oxopiperidin-1-yl)acetamide], the mortality at 200 ppm in assay [1] (setting [3]) and in assay [2] (setting [4]) was 80 to 100% in each case.

As to `CCN(C(=O)CCC(=O)N(C)OC)c1cn(-c2cccnc2)nc1Cl` [Compound F78, N1-(3-Chloro-1-(pyridin-3-yl)-1H-pyrazol-4-yl)-N1-ethyl-N4-methoxy-N4-methylsuccinamide], the mortality at 200 ppm in assay [1] (setting [3]) and in assay [2] (setting [4]) was 80 to 100% each time.

For `CCSC(=O)N(C)C(C)C(=O)N(CC)c1cn(-c2cccnc2)nc1Cl` (stereo not shown) [Compound F79, S-Ethyl (1-((3-chloro-1-(pyridin-3-yl)-1H-pyrazol-4-yl)(ethyl)amino)-1-oxopropan-2-yl)(methyl) carbamothioate], the mortality at 200 ppm in assay [1] (setting [3]) and in assay [2] (setting [4]) was 0 to 80% throughout.

Consider `CCN(C(=O)CCC(=O)NCc1ccc(F)cc1)c1cn(-c2cccnc2)nc1Cl` [Compound F80, N1-(3-Chloro-1-(pyridin-3-yl)-1H-pyrazol-4-yl)-N1-ethyl-N4-(4-fluorobenzyl)succinamide], for which the mortality at 200 ppm is 0 to 80% in assay [1] (setting [3]) and 80 to 100% in assay [2] (setting [4]).
